From patent publication US7132504B2, “Hepatitis C virus inhibitors” (Bristol-Myers Squibb Company, priority 2003, dated 2006)
Like-named read-outs stand apart in the source and are kept apart here.

Test system: HCV replicon in Huh7 cells
Experiment: HCV replicon cell-based assay (FRET)
Parameters: species or system HCV strain 1b
Settings: Hepatitis C virus
Description: An HCV replicon whole cell system was established as described by Lohmann V, Korner F, Koch J, Herian U, Theilmann L, Bartenschlager R., Science 285(5424):110–3 (1999). This system enabled us to evaluate the effects of our HCV Protease compounds on HCV RNA replication. Briefly, using the HCV strain 1b sequence described in the Lohmann paper (Assession number:AJ238799), an HCV cDNA was generated encoding the 5′ internal ribosome entry site (IRES), the neomycin resistance gene, the EMCV (encephalomyocarditis viurs)-IRES and the HCV nonstructural proteins, NS3–NS5B, and 3′ non-translated region (NTR). In vitro transcripts of the cDNA were transfected into the human hepatoma cell line, Huh7. […] Resulting cell lines were characterized for positive and negative strand RNA production and protein production over time.
Huh7 cells, constitutively expressing the HCV replicon, were grown in Dulbecco's Modified Eagle Media (DMEM) containing 10% Fetal calf serum (FCS) and 1 mg/ml G418 (Gibco-BRL). Cells were seeded the night before (1.5×10^4 cells/well) in 96-well tissue-culture sterile plates. Compound and no compound controls were prepared in DMEM containing 4% FCS, 1:100 Penicillin/Streptomysin, 1:100 L-glutamine and 5% DMSO in the dilution plate (0.5% DMSO final concentration in the assay). Compound/DMSO mixes were added to the cells and incubated for 4 days at 37° C. After 4 days, plates were rinsed thoroughly with Phosphate-Buffered Saline (PBS) (3 times 150 μl). The cells were lysed with 25 μl of a lysis assay reagent containing the FRET peptide (RET S1, as described for the in vitro enzyme assay). The lysis assay reagent was made from 5× cell Luciferase cell culture lysis reagent (Promega #E153A) diluted to 1× with distilled water, NaCl added to 150 mM final, the FRET peptide diluted to 10 μM final from a 2 mM stock in 100% DMSO. The plate was then placed into the Cytofluor 4000 instrument which had been set to 340 nm excitation/490 nm emission, automatic mode for 21 cycles and the plate read in a kinetic mode. EC50 determinations were carried out as described for the IC50 determinations. […]
The percentage inhibition was calculated using the formula below: […]
The values were graphed and analyzed using XLFit to obtain the EC50 value.

C=CC1C[C@]1(NC(=O)[C@@H]1C[C@@H](Oc2cc(-c3ccccc3)nc3cc(OC)ccc23)CN1C(=O)[C@@H](NC(=O)OC)C(C)(C)C)C(=O)NS(=O)(=O)N(C)Cc1ccccc1 (some centres unmarked) [Compound 9]
EC50 (Huh-7, 96 h, 4 days, read-out: Activity Range EC50): 150 to 1500 nM | EC50 (Huh-7, read-out: EC50 value in the replicon assay): 403 nM
